target: T1, PDE10 (UniProt Q8CA95); assay: PDE10 enzyme inhibition, IMAP TR-FRET assay (Example A: MPDE10A7 Enzyme Activity and Inhibition); type: biochemical; conditions: Table 1A, Examples 11-56; read-out: PDE10 IC50
T1 sequence (Q8CA95 1-790): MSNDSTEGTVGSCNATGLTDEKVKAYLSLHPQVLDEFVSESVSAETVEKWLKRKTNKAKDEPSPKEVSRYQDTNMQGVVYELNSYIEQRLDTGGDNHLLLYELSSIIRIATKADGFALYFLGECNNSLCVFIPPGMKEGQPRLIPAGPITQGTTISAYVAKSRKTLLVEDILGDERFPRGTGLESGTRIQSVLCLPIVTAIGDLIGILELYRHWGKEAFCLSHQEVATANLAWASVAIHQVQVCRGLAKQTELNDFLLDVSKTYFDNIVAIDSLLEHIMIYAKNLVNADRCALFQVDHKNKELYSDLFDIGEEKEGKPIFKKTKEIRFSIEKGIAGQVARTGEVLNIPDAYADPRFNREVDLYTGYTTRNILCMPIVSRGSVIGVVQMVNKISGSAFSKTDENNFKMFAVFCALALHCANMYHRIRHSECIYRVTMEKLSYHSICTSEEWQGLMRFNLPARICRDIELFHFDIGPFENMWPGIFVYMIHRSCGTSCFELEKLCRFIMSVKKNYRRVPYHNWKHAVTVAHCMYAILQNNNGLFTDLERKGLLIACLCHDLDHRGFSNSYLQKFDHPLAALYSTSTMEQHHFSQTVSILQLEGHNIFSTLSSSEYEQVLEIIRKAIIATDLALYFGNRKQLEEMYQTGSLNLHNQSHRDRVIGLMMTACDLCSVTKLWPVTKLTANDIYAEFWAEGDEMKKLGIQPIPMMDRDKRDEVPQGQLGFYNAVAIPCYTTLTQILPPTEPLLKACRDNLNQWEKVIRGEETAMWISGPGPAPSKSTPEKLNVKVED
Experimental: MPDE10A7 Enzyme Activity and Inhibition Enzyme Activity. An IMAP TR-FRET assay was used to analyze the enzyme activity (Molecular Devices Corp., Sunnyvale Calif.). 5 μL of serial diluted PDE10A (BPS Bioscience, San Diego, Calif.) or tissue homogenate was incubated with equal volumes of diluted fluorescein labeled cAMP or cGMP for 60 min in 384-well polystyrene assay plates (Corning, Corning, N.Y.) at room temperature. After incubation, the reaction was stopped by adding 60 μL of diluted binding reagents and was incubated for 3 hours to overnight at room temperature. The plates were read on an Envision (Perkin Elmer, Waltham, Mass.) for time resolved fluorescence resonance energy transfer. The data were analyzed with GraphPad Prism (La Jolla, Calif.). Enzyme Inhibition. To check the inhibition profile, 5 μL of serial diluted compounds were incubated with 5 μL of diluted PDE10 enzyme (BPS Bioscience, San Diego, Calif.) or tissue homogenate in a 384-well polystyrene assay plate (Corning, Corning, N.Y.) for 30 min at room temperature. After incubation, 10 μL of diluted fluorescein labeled cAMP or cGMP substrate were added and incubated for 60 min at room temperature. The reaction was stopped by adding 60 μL of diluted binding reagents and plates were read on an Envision (Perkin Elmer, Waltham, Mass.) for time resolved fluorescence resonance energy transfer. The data were analyzed with GraphPad Prism (La Jolla, Calif.).

Row | Structure (SMILES) | IC50 [nM]
1 | Clc1ccc2[nH]c(C3CN(c4nccnc4-c4ccccc4Cl)C3)nc2c1 [Example 30, 5-chloro-2-{1-[3-(2-chloro-phenyl)-pyrazin-2-yl]-azetidin-3-yl}-1H-benzoimidazole] | 58.6
2 | Clc1cccc(-c2nccnc2N2CC(c3nc4cc(Cl)ccc4[nH]3)C2)c1 [Example 31, 5-chloro-2-{1-[3-(3-chloro-phenyl)-pyrazin-2-yl]-azetidin-3-yl}-1H-benzoimidazole] | 119
3 | Clc1ccc(-c2nccnc2N2CC(c3nc4cc(Cl)ccc4[nH]3)C2)cc1 [Example 32, 5-chloro-2-{1-[3-(4-chloro-phenyl)-pyrazin-2-yl]-azetidin-3-yl}-1H-benzoimidazole] | 141
4 | Clc1ccc2[nH]c(C3CN(c4nccnc4-c4cccnc4)C3)nc2c1 [Example 33, 5-chloro-2-[1-(3-pyridin-3-yl-pyrazin-2-yl)-azetidin-3-yl]-1H-benzoimidazole] | 538
5 | Clc1ccc2[nH]c(C3CN(c4nccnc4-c4ccncc4)C3)nc2c1 [Example 34, 5-chloro-2-[1-(3-pyridin-4-yl-pyrazin-2-yl)-azetidin-3-yl]-1H-benzoimidazole] | 134
6 | CN(C)C(=O)c1nccnc1N1CC(c2nc3cc(Cl)ccc3[nH]2)C1 [Example 35, 3-[3-(5-chloro-1H-benzoimidazol-2-yl)-azetidin-1-yl]-pyrazine-2-carboxylic acid dimethylamide] | 10000
7 | O=C(NC1CCOCC1)c1nccnc1N1CC(c2nc3cc(Cl)ccc3[nH]2)C1 [Example 36, 3-[3-(5-chloro-1H-benzoimidazol-2-yl)-azetidin-1-yl]-pyrazine-2-carboxylic acid (tetrahydro-pyran-4-yl)-amide] | 3280
8 | O=C(NC[C@H]1CCCO1)c1nccnc1N1CC(c2nc3cc(Cl)ccc3[nH]2)C1 [Example 37, 3-[3-(5-chloro-1H-benzoimidazol-2-yl)-azetidin-1-yl]-pyrazine-2-carboxylic acid (tetrahydro-furan-2-ylmethyl)-amide] | 2530
9 | O=C(NC[C@@H]1CCCO1)c1nccnc1N1CC(c2nc3cc(Cl)ccc3[nH]2)C1 [Example 38, 3-[3-(5-chloro-1H-benzoimidazol-2-yl)-azetidin-1-yl]-pyrazine-2-carboxylic acid (tetrahydro-furan-2-ylmethyl)-amide] | 2150
10 | Cc1ccc2[nH]c(C3CN(c4nccnc4-c4ccccc4)C3)nc2c1 [Example 39, 5-methyl-2-(1-(3-phenylpyrazin-2-yl)azetidin-3-yl)-1H-benzo[d]imidazole] | 39.8
11 | Clc1ccc2[nH]c(C3CN(c4nccnc4Nc4ccccc4)C3)nc2c1 [Example 40, 3-(3-(5-chloro-1H-benzo[d]imidazol-2-yl)azetidin-1-yl)-N-phenylpyrazin-2-amine] | 630
12 | CN(c1ccccc1)c1nccnc1N1CC(c2nc3cc(Cl)ccc3[nH]2)C1 [Example 41, 3-(3-(5-chloro-1H-benzo[d]imidazol-2-yl)azetidin-1-yl)-N-methyl-N-phenylpyrazin-2-amine] | 74
13 | Clc1ccc2[nH]c(C3CN(c4nccnc4Oc4ccccc4)C3)nc2c1 [Example 42, 5-chloro-2-(1-(3-phenoxypyrazin-2-yl)azetidin-3-yl)-1H-benzo[d]imidazole] | 80.9
14 | CN1CCN(c2nccnc2N2CC(c3nc4cc(Cl)ccc4[nH]3)C2)CC1 [Example 43, 5-chloro-2-(1-(3-(4-methylpiperazin-1-yl)pyrazin-2-yl)azetidin-3-yl)-1H-benzo[d]imidazole] | 305
15 | Clc1ccc2[nH]c(C3CN(c4nccnc4N4CCCCC4)C3)nc2c1 [Example 44, 5-chloro-2-(1-(3-(piperidin-1-yl)pyrazin-2-yl)azetidin-3-yl)-1H-benzo[d]imidazole] | 920
16 | COc1nccnc1N1CC(c2nc3cc(Cl)ccc3[nH]2)C1 [Example 45, 5-chloro-2-(1-(3-methoxypyrazin-2-yl)azetidin-3-yl)-1H-benzo[d]imidazole] | 499
17 | Cc1ccc2[nH]c(C3CN(c4nccnc4N4CCOCC4)C3)nc2c1 [Example 46, 4-(3-(3-(5-methyl-1H-benzo[d]imidazol-2-yl)azetidin-1-yl)pyrazin-2-yl)morpholine] | 600
18 | Cc1ccc2[nH]c(C3CN(c4ncccc4Cl)C3)nc2c1 [Example 47, 2-(1-(3-chloropyridin-2-yl)azetidin-3-yl)-5-methyl-1H-benzo[d]imidazole] | 3840
19 | Cc1ccc2[nH]c(C3CN(c4nccnc4Cl)C3)nc2c1 [Example 48, 2-(1-(3-chloropyrazin-2-yl)azetidin-3-yl)-5-methyl-1H-benzo[d]imidazole] | 456
20 | Clc1ccc2[nH]c(C3CN(c4ncccc4OC4CCOCC4)C3)nc2c1 [Example 49, 5-chloro-2-(1-(3-(tetrahydro-2H-pyran-4-yloxy)pyridin-2-yl)azetidin-3-yl)-1H-benzo[d]imidazole] | 168
21 | Clc1ccc2[nH]c(C3CN(c4nccnc4N4CCOCC4)C3)nc2c1 [Example 50, 4-(3-(3-(5-chloro-1H-benzo[d]imidazol-2-yl)azetidin-1-yl)pyrazin-2-yl)morpholine] | 134
22 | Clc1ccc2[nH]c(C3CN(c4nccnc4C4=CCOCC4)C3)nc2c1 [Example 51, 5-chloro-2-(1-(3-(3,6-dihydro-2H-pyran-4-yl)pyrazin-2-yl)azetidin-3-yl)-1H-benzo[d]imidazole] | 442
23 | Clc1ccc2[nH]c(C3CN(c4ncccc4Br)C3)nc2c1 [Example 52, 2-(1-(3-bromopyridin-2-yl)azetidin-3-yl)-5-chloro-1H-benzo[d]imidazole] | 1820
24 | Clc1ccc2[nH]c(C3CN(c4nccnc4Cl)C3)nc2c1 [Example 53, 5-chloro-2-(1-(3-chloropyrazin-2-yl)azetidin-3-yl)-1H-benzo[d]imidazole] | 1160
25 | Clc1ccc2[nH]c(C3CN(c4ncccc4Cl)C3)nc2c1 [Example 54, 5-chloro-2-(1-(3-chloropyridin-2-yl)azetidin-3-yl)-1H-benzo[d]imidazole] | 7.81
26 | Clc1ccc2[nH]c(C3CN(c4nc(Cl)ncc4Cl)C3)nc2c1 [Example 55, 5-chloro-2-(1-(2,5-dichloropyrimidin-4-yl)azetidin-3-yl)-1H-benzo[d]imidazole] | 520
27 | Clc1ccc2[nH]c(C3CN(c4ncccc4C4CCOCC4)C3)nc2c1 [Example 56, 5-chloro-2-(1-(3-(tetrahydro-2H-pyran-4-yl)pyridin-2-yl)azetidin-3-yl)-1H-benzo[d]imidazole] | 987

same assay, conditions: read-out: IC50

Row | Structure (SMILES) | IC50 [nM]
28 | c1ccc2nc(C3CN(c4nccnc4N4CCCCC4)C3)ccc2c1 [Example 57] | 689
29 | Cc1cccc(-c2nccnc2N2CC(c3ccc4ccccc4n3)C2)c1 [Example 58, 2-[1-(3-M-TOLYL-PYRAZIN-2-YL)-AZETIDIN-3-YL]-QUINOLINE] | 7.61
30 | c1cnc(N2CC(c3ccc4ccccc4n3)C2)c(N2CCCCC2)c1 [Example 59, 2′-(3-QUINOLIN-2-YL-AZETIDIN-1-YL)-3,4,5,6-TETRAHYDRO-2H-[1,3′]BIPYRIDINYL] | 68
31 | COc1cccc(-c2cccnc2N2CC(c3ccc4ccccc4n3)C2)c1 [Example 60, 2-{1-[3-(3-METHOXY-PHENYL)-PYRIDIN-2-YL]-AZETIDIN-3-YL}-QUINOLINE] | 6820

Source: patent US8946230B2, “Aryl- and heteroaryl- nitrogen-heterocyclic compounds as PDE10 inhibitors” (Amgen Inc., priority 2010, dated 2015)
